A short description of series [1]: Cytotoxicity against human HepG2 cells after 72 hrs by MTT assay. It counts as cell-based.
Series [2] relates to Leishmania major. As to the kind of experiment: Antimicrobial activity against Leishmania major MHOM/IL/81/BNI promastigotes after 96 hrs by resazurin-based assay. It counts as functional, organism-based. For orientation: The colour change of resazurin is a common sign of viable cells or microbes.
Series [3] deals with Plasmodium falciparum. As to the kind of experiment: Antimicrobial activity against chloroquine-resistant and mefloquine-sensitive Plasmodium falciparum W2 infected in human erythrocytes after 48 hrs by SYBR Green I assay. As to conditions: W2, 48 h. It counts as functional, organism-based.
Series [4] can be described thus: Selectivity index, ratio of CC50 for human HepG2 cells to IC50 for chloroquine-resistant and mefloquine-sensitive Plasmodium falciparum W2. It counts as functional.
Series [5] in a line: Selectivity index, ratio of CC50 for mouse J774A1 cells to IC50 for Leishmania major MHOM/IL/81/BNI promastigotes. It counts as functional, J774.A1.
Series [6] is described as follows: Selectivity index, ratio of CC50 for human HepG2 cells to IC50 for chloroquine and mefloquine-sensitive Plasmodium falciparum 3D7. It counts as functional.
Series [7] is described as follows: Selectivity index, ratio of CC50 for mouse J774A1 cells to IC50 for Leishmania donovani MHOM/IN/00/DEVI promastigotes. It counts as functional, J774.A1.
The test system of series [8] is Trypanosoma brucei brucei. Kind of series: Antimicrobial activity against Trypanosoma brucei brucei Antat 1.1 after 24 hrs by haemocytometric analysis. The note with it: Antat 1.1, 24 h. In kind it is functional, organism-based.
Series [9] can be described thus: Selectivity index, ratio of CC50 for human HepG2 cells to IC50 for Leishmania mexicana MHOM/MX/95/NAN1 promastigotes. It counts as functional.
A short description of series [10]: Selectivity index, ratio of CC50 for human HepG2 cells to IC50 for Leishmania major MHOM/IL/81/BNI promastigotes. In kind it is functional.
A short description of series [11]: Selectivity index, ratio of CC50 for human HepG2 cells to IC50 for Trypanosoma brucei brucei Antat 1.1. In kind it is functional.
A short description of series [12]: Selectivity index, ratio of CC50 for human HepG2 cells to IC50 for Leishmania donovani MHOM/IN/00/DEVI promastigotes. It counts as functional.
Series [13] is described as follows: Cytotoxicity against mouse J774A1 cells after 72 hrs by MTT assay. It counts as cell-based, J774.A1. In general terms: Tetrazolium dyes change colour on reduction, which living cells bring about.
Series [14] has as its system Plasmodium falciparum. Kind of series: Antimicrobial activity against chloroquine and mefloquine-sensitive Plasmodium falciparum 3D7 infected in human erythrocytes after 48 hrs by SYBR Green I assay. As to conditions: 3D7, 48 h. It counts as functional, organism-based.
The next series deals with Leishmania donovani. Kind of series: Antimicrobial activity against Leishmania donovani MHOM/IN/00/DEVI promastigotes after 72 hrs by MTT assay. It counts as functional, organism-based.
The nature of series [15]: Selectivity index, ratio of CC50 for mouse J774A1 cells to IC50 for Leishmania mexicana MHOM/MX/95/NAN1 promastigotes. In kind it is functional, J774.A1.
The next series relates to Leishmania mexicana. Kind of series: Antimicrobial activity against Leishmania mexicana MHOM/MX/95/NAN1 promastigotes after 96 hrs by resazurin-based assay. In kind it is functional, organism-based. As to conditions: MHOM/MX/95/NAN1, 96 h.
The test system of series [16] is Leishmania major. As to the kind of experiment: Ratio of pentamidine IC50 to compound IC50 for Leishmania major MHOM/IL/81/BNI promastigotes. It counts as functional.

As a reminder, the CC50 is the concentration giving 50% cytotoxicity. High values mean better tolerance by the cells, low ones harm at low concentration. As a reminder, the IC50 is the concentration at which inhibition is half-maximal. A lower IC50 goes with greater potency.

Molecules are shown by their SMILES.

With `CCCC/C=C/C=C/c1nc2cc(OC)ccc2n2cccc12`, the 50% cytotoxic concentration (CC50) at 72 h in [1] is 18.3 µM; in [13] it was 8 µM. Further, the half-inhibitory concentration (IC50) in the series on Leishmania major [2] turned out to be 2.5 µM; in the series with Plasmodium falciparum [3], 13.8 µM; in series [8] it was 1.1 µM; in the series with Plasmodium falciparum [14] it was 8.9 µM; in the series with Leishmania donovani it was 12.1 µM; in the series on Leishmania mexicana it was 6.6 µM. Also, the “Ratio CC50/IC50” value in series [4] was 1.3; in series [5], 3.2; in series [6] it was 2.1; in [7], 0.7; in [9], 2.8; in [10] it was 7.3. The “Ratio CC50/IC50” value in [11] is reported as 16.6; in series [12], 1.5; in series [15] it was 1.2.

In the case of `C/C=C/C=C/c1nc2ccccc2n2cccc12`, the values for the CC50 at 72 h in series [1] and in series [13] were 10.3 µM and 4.3 µM, respectively. Besides, the concentration for half-maximal inhibition (IC50) came to 4.7 µM with Leishmania major [2]; 2.5 µM in the series with Plasmodium falciparum [3]; 2.4 µM in [8]; 2.4 µM in the series with Plasmodium falciparum [14]; 9.8 µM in the series on Leishmania donovani; 7.6 µM with Leishmania mexicana. Also, the “Ratio CC50/IC50” value in [4] is reported as 4.1; in series [5], 0.9; in series [6], 4.3; in series [7], 0.4; in series [9], 1.4; in [10], 2.2. Besides, the “Ratio CC50/IC50” value in series [11] came out at 4.3; in [12] it was 1.1; in [15], 0.6.

As to `C/C=C/C=C/c1nc2ccc(OC)cc2n2cccc12`, the 50% cytotoxic concentration (CC50) at 72 h worked out at 8.7 µM in series [1] and 5.3 µM in [13]. Also, the 50% inhibitory concentration (IC50) with Leishmania major [2] came out at 2.7 µM; in the series with Plasmodium falciparum [3], 2.4 µM; in series [8], 1.8 µM; in the series on Plasmodium falciparum [14] it was 1.5 µM; with Leishmania donovani, 5.4 µM; in the series on Leishmania mexicana it was 3.7 µM. Besides, the “Ratio CC50/IC50” value in [4] is recorded as 3.6; in series [5] it was 2; in [6] it was 5.8; in series [7], 1; in series [9], 2.4; in [10], 3.2. In addition, the figures for the “Ratio CC50/IC50” value in series [11], in series [12] and in series [15] were 4.8, 1.6 and 1.4, respectively.

For the compound `C/C=C/C=C/c1nc2cccc(OC)c2n2cccc12`, the CC50 at 72 h in series [1] was 6.5 µM; in [13] it was 2.7 µM. Also, the half-inhibitory concentration (IC50) in the series with Leishmania major [2] came to 3.3 µM; with Plasmodium falciparum [3], 2.6 µM; in [8], 2.2 µM; in the series on Plasmodium falciparum [14] it was 3.2 µM; in the series on Leishmania donovani, 7.2 µM; in the series with Leishmania mexicana it was 8 µM. Besides, the “Ratio CC50/IC50” value in series [4] was determined as 2.5; in series [5], 0.8; in series [6], 2; in [7], 0.4; in series [9], 0.8; in series [10], 2. Further, the “Ratio CC50/IC50” value in [11] was 2.9; in [12], 0.9; in [15], 0.3.

Consider `C/C=C/C=C/C=C/c1nc2ccccc2n2cccc12`, for which the CC50 at 72 h in series [1] was 10.6 µM; in series [13] it was 4.9 µM. The concentration for half-maximal inhibition (IC50) was determined as 1.2 µM in the series with Leishmania major [2]; 8.8 µM with Plasmodium falciparum [3]; 2.2 µM in [8]; 10.1 µM in the series with Plasmodium falciparum [14]; 10.5 µM with Leishmania donovani; 4.4 µM in the series with Leishmania mexicana. Moreover, in the series on Leishmania major [16], the “Ratio IC50” value came out at 3.6. Also, the “Ratio CC50/IC50” value is 1.2 in series [4]; 4.1 in series [5]; 1 in series [6]; 0.5 in series [7]; 2.4 in [9]; 8.8 in series [10]. Moreover, the “Ratio CC50/IC50” value is 4.8 in series [11], 1 in series [12] and 1.1 in series [15].

Values taken from ChEMBL document CHEMBL3259800, “Design, synthesis and biological evaluation of novel 4-alkapolyenylpyrrolo[1,2-a]quinoxalines as antileishmanial agents--part III” (Eur J Med Chem, 2014).
